The IC50 is the concentration needed to halve the response being measured.

IC50 data for three molecules are collected here from patent US11485731B2, “Compounds and methods useful in the treatment of a PRMT5-mediated disorder” (ARGONAUT THERAPEUTICS LIMITED, priority 2017, dated 2022).

Sequence of human PRMT5/MEP50 (O14744 whole entry): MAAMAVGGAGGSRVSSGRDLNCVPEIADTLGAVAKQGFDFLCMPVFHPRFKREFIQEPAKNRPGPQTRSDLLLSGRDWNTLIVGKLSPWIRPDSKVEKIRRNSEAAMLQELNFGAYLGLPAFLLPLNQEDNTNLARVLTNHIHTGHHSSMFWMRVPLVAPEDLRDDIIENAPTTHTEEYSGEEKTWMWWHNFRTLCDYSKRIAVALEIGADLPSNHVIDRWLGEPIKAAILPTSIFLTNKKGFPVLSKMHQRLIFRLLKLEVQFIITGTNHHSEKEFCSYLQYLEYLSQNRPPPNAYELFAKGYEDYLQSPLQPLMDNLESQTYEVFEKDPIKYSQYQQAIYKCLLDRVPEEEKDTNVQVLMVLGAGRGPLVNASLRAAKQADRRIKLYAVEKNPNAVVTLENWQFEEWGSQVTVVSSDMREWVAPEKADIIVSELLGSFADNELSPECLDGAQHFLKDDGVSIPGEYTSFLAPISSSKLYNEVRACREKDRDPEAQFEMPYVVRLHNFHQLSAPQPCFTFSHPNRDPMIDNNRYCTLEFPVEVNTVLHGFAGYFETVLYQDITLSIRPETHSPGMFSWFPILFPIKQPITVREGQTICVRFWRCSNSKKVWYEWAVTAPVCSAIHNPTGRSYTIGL
Sequence of human PRMT5/MEP50 (Q9BQA1 whole entry partner): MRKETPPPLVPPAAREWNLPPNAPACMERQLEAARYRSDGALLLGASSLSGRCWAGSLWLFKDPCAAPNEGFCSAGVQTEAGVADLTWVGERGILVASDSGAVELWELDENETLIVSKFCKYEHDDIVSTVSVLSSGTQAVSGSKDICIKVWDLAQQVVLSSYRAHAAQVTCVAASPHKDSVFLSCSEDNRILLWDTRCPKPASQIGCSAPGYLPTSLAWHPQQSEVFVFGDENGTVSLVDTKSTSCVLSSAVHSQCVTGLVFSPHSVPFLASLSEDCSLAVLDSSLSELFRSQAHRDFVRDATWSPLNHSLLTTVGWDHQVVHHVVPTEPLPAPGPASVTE

In the assay the target is human PRMT5/MEP50 (Homo sapiens (Human), UniProt O14744). The assay can be described thus: PRMT5 chemiluminescent assay. Format: biochemical. The conditions noted are these: human PRMT5/MEP50 expressed in HEK293 cells; biotinylated histone peptides; Histone H4 monomethyl R3 antibody; chemiluminescent readout. In outline:
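HEK293-expressed PRMT5/MEP50, diluted to 5 ng/µL in assay buffer, reacted 60 min with rotation on plate-bound biotinylated histone peptides. Product was detected with anti-histone H4 R3 monomethyl antibody (60 min), then HRP secondary (30 min) and chemiluminescent substrate. IC50 values came from the chemiluminescence signal.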
Molecule `O=C(NCCCN1CCc2ccccc2C1)N1CCC(c2ccccc2)C1` (stereo not drawn) [Example 6A, N-(3-(3,4-dihydroisoquinolin-2(1H)-yl)propyl)-3-phenyl pyrrolidine-1-carboxamide] returned an IC50 of 939 nM.

Molecule `O=C(NCCCN1CCc2ccccc2C1)N1CCCC(c2ccccc2)C1` (stereo not drawn) [Example 6B, N-(3-(3,4-dihydroisoquinolin-2(1H)-yl)propyl)-3-phenylpiperidine-1-carboxamide] gave an IC50 of 1700 nM.

For the molecule `O=C(OCCCN1CCc2ccccc2C1)N1CCC(c2ccccc2)C1` (stereo not drawn) [Example 7, 3-(3,4-dihydroisoquinolin-2(1H)-yl)propyl 3-phenylpyrrolidine-1-carboxylate], the IC50 was determined as 342 nM.
